Measured values from patent US20240408114A1, “METHODS FOR PREVENTING AND TREATING ACUTE KIDNEY INJURY” (The Johns Hopkins University, priority 2021, published 2024).

Tests used:
glutaminase = test: Glutaminase activity in post-ischemic kidney tissues; format: in vivo, mouse; details: post-ischemic kidney tissues at 24 h after IRI; JHU083 1.83 mg/kg i.p. every other day; P=0.008
Protocol: To confirm that JHU083 suppressed glutamine-related enzymes in kidneys, glutaminase activities were measured in post-ischemic kidney tissues at 24 h after IRI.
(§1) Glutamine antagonist, JHU083 was synthesized as previously described, Rais et al., 2016, and dissolved in 50 mM […] 4-(2-hydroxyethyl)-1-piperazineethanesulfonic acid (HEPES) buffered 0.9% saline. Aliquot stocks were stored at −80° C. and thawed right before injection. Before the IRI surgery or cisplatin injection, mice were administered 1.83 mg/kg JHU083 (equivalent to 1 mg/kg DON) or vehicle (50 mM HEPES buffered 0.9% saline) every other day via intraperitoneal injection. Following 4 consecutive dosages, mice underwent IRI surgery or cisplatin injection. The last additional dose was given at 24 h after IRI or cisplatin injection. This dosage regimen was chosen based on efficiency and toxicity data from a previous study. Hollinger et al., 2020.
Glutaminase activity measurements in kidney samples were adapted from previously described protocols. Engler et al., 2002. […] [^3H]-Glutamate, the reaction product, was then eluted with 0.1 N HCl and analyzed for radioactivity using Perkin Elmer's TopCount instrument in conjunction with their 96-well LumaPlates. […]

[1] = system: cisplatin-induced AKI in mice; test: Cisplatin-induced (nephrotoxic) AKI model: kidney function and histology; format: in vivo, mouse
Protocol: Given the significant protective outcomes in ischemic AKI, we subsequently tested the effect of glutamine blockade on a nephrotoxic AKI model, which is another common etiology of clinical AKI. After pretreatment with JHU083 or vehicle, 25 mg/kg of cisplatin was injected intraperitoneally. T cells were isolated and studied after 72 h after cisplatin treatment (FIG. 16A).
Cisplatin (cis-diammineplatinum II dichloride; Sigma-Aldrich, St. Louis, MO) was freshly dissolved into 0.9% saline (1 mg/mL) on the day of injection. The dissolved solution was incubated in water bath at 40° C. for 10 min to achieve complete dissolution. A single 25 mg/kg dose of cisplatin was injected intraperitoneally.
Blood samples were obtained at 0, 24, 48, and 72 h after IRI or cisplatin injection through tail vein collection. Plasma creatinine concentration was measured by Cobas Mira Plus automated analyzer system (Roche, Indianapolis, IN) with creatinine reagent (Pointe Scientific Inc, Canton, MI).
At 24 h after IRI and 72 h after cisplatin injection, mice were anesthetized with ketamine (130 mg/kg; VetOne, Boise, ID) and xylazine (7 mg/kg; Akorn) intraperitoneal injection. After exsanguination, kidneys were collected and fixed with 10% buffered formalin followed by paraffin embedding. Tissue sections were stained with hematoxylin and eosin. A renal pathologist scored necrotic tubules in a blinded fashion.
as §1, with “This dosage regimen was chosen based on efficiency and toxicity data from a previous study. Hollinger et al., 2020.” left out

**Q.** How did the “glutaminase activities, decrease” value (glutaminase) turn out when CCOC(=O)[C@H](CCC(=O)C=[N+]=[N-])NC(=O)[C@@H](N)CC(C)C [JHU083] was run?
**A.** Its value is 29%.

**Q.** And the “plasma creatinine at 72 h” value ([1]; 72 h after cisplatin 25 mg/kg i.p., JHU083 pretreatment, vehicle 2.28±0.34, P=0.016)?
**A.** The value was 1.17 ± 0.24 mg/dL.

**Q.** What about the medullary necrotic tubules ([1]; 72 h after cisplatin, vehicle 57.1±3.7, P<0.001) of the same compound?
**A.** Its medullary necrotic tubules is 19.9±4.5%.

**Q.** What about the cortical necrotic tubules ([1]; 72 h after cisplatin, vehicle 58.1±4.9, P=0.243) of the same compound?
**A.** Its cortical necrotic tubules is 20.9±7.0%.
